From paper PMC9611727, “Optimization of a Novel Mandelamide-Derived Pyrrolopyrimidine Series of PERK Inhibitors” (Pharmaceutics, 2022)

Assays:
[1] = Caco-2 permeability / efflux; format: in vitro ADME; conditions: human, Caco-2, pH 7.4; for efflux ratio at 120 min, 5 µM: Papp (B-to-A) / Papp (A-to-B)
Experimental: P-gp Substrate Assessment using Caco-2 Monolayers
Caco-2 cells (clone C2BBe1) were obtained from American Type Culture Collection (Manassas, VA). Hanks’ balanced salt solution, valspodar and lucifer yellow were obtained from Sigma-Aldrich (St. Louis, MO). All solvents were obtained from commercial sources and used without further purification. Cell monolayers were grown to confluence on collagen-coated, microporous membranes in 12-well assay plates. Details of the plates and their certification are shown below. The permeability assay buffer was Hanks’ balanced salt solution (HBSS) containing 10 mM HEPES and 15 mM glucose at a pH of 7.4. The buffer in the receiver chamber also contained 1% bovine serum albumin. The dosing solution concentration was 5 μM of test article in the assay buffer +/- 1 μM valspodar. Cells were first pre-incubated for 30 minutes with HBSS containing +/- 1 μM valspodar. Cell monolayers were dosed on the apical side (A-to-B) or basolateral side (B-to-A) and incubated at 37°C with 5% CO2 in a humidified incubator. Samples were taken from the donor and receiver chambers at 120 minutes. Each determination was performed in duplicate. The flux of lucifer yellow was also measured post-experimentally for each monolayer to ensure no damage was inflicted to the cell monolayers during the flux period. All samples were assayed by LC-MS/MS using electrospray ionization.
LC-MS/MS Analysis using the PE Sciex API 4000 mass spectrometer […]
Column: Waters ACQUITY UPLC BEH Phenyl 30 × 2.1 mm, 1.7 µm
Mobile Phase Buffer: 25 mM ammonium formate buffer, pH 3.5
Aqueous Reservoir (A): 90% water, 10% buffer
Organic Reservoir (B): 90% acetonitrile, 10% buffer
Total Run Time: 1.00 minute
Autosampler: 10 µL injection volume
Wash1: water/methanol/2-propanol:1/1/1; with 0.2% formic acid
Wash2: 0.1% formic acid in water
Instrument: PE SCIEX API 4000
Interface: Turbo Ionspray
Mode: Multiple Reaction Monitoring (Negative ion mode)
Method: 1.0 minute duration
Mass Spectrometer Settings
Data Analysis and Calculations
The apparent permeability (Papp) and percent recovery were calculated as follows:
Papp = (dCr/dt) × Vr/(A × CA)
Percent recovery = 100 × ((V × Cfinal) + (V × Cfinal)) / (V × C ) […]
dCr/dt is the slope of the cumulative receiver concentration versus time in µM s-1;
Vr is the volume of the receiver compartment in cm3;
Vd is the volume of the donor compartment in cm3;
A is the area of the insert (1.13 cm2 for 12-well);
CA is the average of the nominal dosing concentration and the measured 120 minute donor concentration in μM;
CN is the nominal concentration of the dosing solution in μM;
Cfinal is the cumulative receiver concentration in μM at the end of the incubation period; […]
Cd is the concentration of the donor in μM at the end of the incubation period.
Efflux ratio (ER) is defined as Papp (B-to-A) / Papp (A-to-B). […]

[2] = Plasma protein binding (RED dialysis), mouse; format: in vitro ADME; conditions: male, CD-1 (ICR), pH 7.4
Excerpt: Verapamil hydrochloride and tamoxifen were obtained from Sigma-Aldrich. […]
Pooled mixed gender human donor plasma, Sprague Dawley male rat plasma, CD-1 (ICR) male mouse plasma and male beagle dog plasma were obtained from Bioreclamation Inc. (Westbury, NY). Reusable Teflon base plate, RED Device inserts, and BupH Phosphate Buffered Saline packs (0.1 M sodium phosphate and 0.15 M sodium chloride when dissolved in 0.5 L water) were obtained from Thermo Scientific (Waltham, MA). Propranolol was obtained from Sigma-Aldrich (St. Louis, MO). All solvents were obtained from commercial sources and used without further purification.
Frozen plasma was thawed and the pH of plasma and BupH phosphate buffered saline was adjusted to 7.4 prior to dialysis. Into each well of a reusable Teflon 48-well base plate a RED insert was placed open end up. Ten microliters (10 µL) of the test compound (0.1 mM in acetonitrile/water, 1:1 v/v) was added to 990 µL of plasma to achieve 1 µM final concentration. The spiked plasma (200 µL) was added to the sample chamber, which is indicated by the red retainer ring (donor side). To the other side (receiver side), 350 µL of BupH phosphate buffered saline (pH 7.4) was added. A buffer-to-buffer assay was also performed to measure equilibrium across the membrane in the absence of plasma protein.
Propranolol was used as a positive control. All samples were prepared in triplicate. The RED device base plate was then sealed and placed in a shaking incubator set to maintain 37°C and 200 rpm for four hours.
After incubation, 100 µL of each sample was combined with an equal volume of either plasma or buffer, to create a similar matrix for all samples. Blank buffer was added to plasma samples, and vice versa. Samples from the incubation, along with the original compound-spiked plasma samples, were prepared for analysis in the same manner. Protein precipitation by addition of two parts of ice-cold acetonitrile to one part of reaction volume was carried out. To ensure complete protein precipitation samples were sealed and placed overnight at 4°C. The next morning samples were centrifuged at 3,600 rpm for 15 minutes. The supernatants (70 µL) were supplemented with an equal volume of internal standard solution (0.15 µM verapamil in water) and subjected to LC-MS/MS analysis.

786-O RCC xenografts = assay: 786-O ccRCC tumor xenograft study; format: in vivo; conditions: for tolerability by body weight measurement / tumor growth inhibition: 30 mg/kg BID oral, 29 days
Experimental: In vivo studies of the effect of pyrrolopyrimidines on 786-O xenograft inhibition follow a method published elsewhere. Female BALB/c nude mice were inoculated subcutaneously with 786-O tumor cells (5 × 10^6) in 0.1 mL of PBS. Animals were randomized when tumors reached 100–200 mm^3 into treatment groups. […] Tumor volumes were measured by caliper and the volume was expressed in mm^3 using the formula: V = (L × W × W)/2, where V, L, and W represent tumor volume, length, and width, respectively. All studies were conducted following an IACUC-approved protocol (AN-1903-05-1798). Experimental data management and reporting were in accordance with applicable Crown Bioscience’s Guidelines and Standard Operating Procedures.

SMILES	Papp A→B at 120 min, 5 µM [1]	efflux ratio at 120 min, 5 µM [1]	fraction unbound at 4 h, 1 µM [2]	tolerability by body weight measurement (786-O RCC xenografts)	tumor growth inhibition (786-O RCC xenografts)	effect on body weight (786-O RCC xenografts; 10 or 30 mg/kg, 28-day study period)	tumor volume (786-O RCC xenografts; 10 or 30 mg/kg, 28 days)
Cc1nc(N)c2c(-c3ccc(NC(=O)[C@H](O)c4cccc(F)c4)cc3C)cn(C)c2n1 [Compound 24]	9 ×10⁻⁶ cm/s	5.2	0.006	well tolerated	significant tumor growth inhibition		
Cc1nc(N)c2c(-c3ccc(NC(=O)[C@H](O)c4cccc(C(F)(F)F)c4)cc3C)cn(C)c2n1 [Compound 26]	21 ×10⁻⁶ cm/s	2.2	0.001	well tolerated	significant tumor growth inhibition	No significant effects on body weght	significantly decreased tumor volume
Cc1nc(N)c2c(-c3ccc(NC(=O)[C@H](O)c4cccc(Cl)c4)cc3C)cn(C)c2n1 [Compound 28]	23 ×10⁻⁶ cm/s	1.9	< 0.001				
Cc1nc(N)c2c(-c3ccc(NC(=O)[C@H](O)c4cc(F)cc(F)c4)cc3C)cn(C)c2n1 [Compound 38]	19 ×10⁻⁶ cm/s	1.9	0.008				
Cc1nc(N)c2c(-c3ccc(NC(=O)[C@H](O)c4cc(F)cc(C(F)(F)F)c4)cc3C)cn(C)c2n1 [Compound 39]	16 ×10⁻⁶ cm/s	2	< 0.001				
Cc1cc(F)cc([C@@H](O)C(=O)Nc2ccc(-c3cn(C)c4nc(C)nc(N)c34)c(C)c2)c1 [Compound 41]	20 ×10⁻⁶ cm/s	2.5	0.001				
Cc1nc(N)c2c(-c3ccc(NC(=O)[C@H](O)c4cccc(Cl)c4)cc3F)cn(C)c2n1 [Compound 48]	24 ×10⁻⁶ cm/s	1.6	0.002				
Cc1nc(N)c2c(-c3ccc(NC(=O)[C@H](O)c4cccc(F)c4)c(F)c3C)cn(C)c2n1 [Compound 65]	26 ×10⁻⁶ cm/s	1.6	0.007				
Cc1nc(N)c2c(-c3cc(F)c(NC(=O)[C@H](O)c4cccc(F)c4)cc3C)cn(C)c2n1 [Compound 66]	24 ×10⁻⁶ cm/s	1.5	0.012				
Cc1nc(N)c2c(-c3ccc(NC(=O)[C@H](O)c4cccc(F)c4)c(F)c3F)cn(C)c2n1 [Compound 70, (R)-N-(4-(4-amino-2,7-dimethyl-7H-pyrrolo[2,3-d]pyrimidin-5-yl)-2,3-difluorophenyl)-2-(3-fluorophenyl)-2-hydroxyacetamide]	29 ×10⁻⁶ cm/s	1.7	0.003	well tolerated	significant tumor growth inhibition		
